Assays:
[1] = test system: NCI-H358 human non-small cell lung cancer; test: NCI-H358 CCK-8 proliferation assay; type: cell-based; conditions: NCI-H358 cells, 72 hr
How it was run: (§1)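 KRAS(G12C) lines were used: MIA PaCa-2 with 2 copies, and NCI-H358 and NCI-H23 with 1 copy each. Cells were treated with 3-fold compound dilutions from 20 μM to 1.02 nM, and proliferation was read by CCK-8 absorbance. % inhibition was calculated against DMSO-treated cells after subtracting the cell-free medium blank.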

[2] = test system: NCI-H23 human non-small cell lung cancer; test: NCI-H23 CCK-8 proliferation assay; type: cell-based; conditions: NCI-H23 cells, 72 hr
How it was run: as §1

[3] = test system: MIA PaCa-2 human pancreatic carcinoma; test: MIA PaCa-2 CCK-8 proliferation assay; type: cell-based; conditions: Homo sapiens, MIA PaCa-2, 72 h, MIA PaCa-2 cells
How it was run: as §1

HSP90a protein = target: T1, HSP90a protein (Homo sapiens, UniProt P07900); test: HSP90α-binding fluorescent polarization (FP) assay, BODIPY-labeled RNK04010 probe; conditions: FP competition with RNK04010 (BODIPY-labeled), 5 nM, 300 min at 25° C.
T1 construct: purchased BPS Bioscience 50298
How it was run: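 Displacement of a 5 nM fluorescent HSP90 ligand from the N-terminal HSP90a domain by FP. Incubation ran at 25° C: 120 min for the FITC-geldanamycin tracer, 300 min for the BODIPY-conjugated triazolone RNK04010.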

KRAS(G12C) = KRAS(G12C) (Homo sapiens, UniProt P01116, G12C); test: KRAS(G12C)/SOS1 homogeneous time-resolved fluorescence (HTRF) assay; set-up: purchased Cisbio 63ADK000CB16PEG; conditions: absence of GTP, 4° C. for 3 hr, read-out: KRAS (G12C) binding
How it was run: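 HTRF kit measuring compound-induced block of KRAS(G12C)-SOS1 interaction without GTP. Compounds tested as 3-fold serial dilutions down to 1.02 nM, incubated with reaction components 3 h at 4 °C in sealed plates before fluorescence read.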

Sequence of KRAS(G12C) (P01116 1-188 isoform P01116-2 G12C): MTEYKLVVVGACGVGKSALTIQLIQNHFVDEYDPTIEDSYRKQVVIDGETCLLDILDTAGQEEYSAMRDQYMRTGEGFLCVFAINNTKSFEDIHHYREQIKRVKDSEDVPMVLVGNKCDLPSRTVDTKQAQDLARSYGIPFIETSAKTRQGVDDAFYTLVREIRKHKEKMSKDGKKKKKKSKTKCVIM

In the case of `CC(=O)N1CCN(c2nc(NCCC(=O)NCc3ccc(CN4CCC(Cc5ccc(-n6c(C(=O)NCC(F)(F)F)nnc6-c6cc(C(C)C)c(O)cc6O)cc5)CC4)cc3)nc3c2CCN(c2cc(O)cc4ccccc24)C3)CC1` [Compound 54, 4-(4-((1-(4-((3-((4-(4-acetylpiperazin-1-yl)-7-(3-hydroxynaphthalen-1-yl)-5,6,7,8-tetrahydropyrido[3,4-d]pyrimidin-2-yl)amino)propanamido)methyl)benzyl)piperidin-4-yl)methyl)phenyl)-5-(2,4-dihydroxy-5-isopropylphenyl)-N-(2,2,2-trifluoroethyl)-4H-1,2,4-triazole-3-carboxamide, trifluoroacetic acid], the EC50 [1] is reported as 100 to 1000 nM, the EC50 [2] is reported as 100 to 1000 nM and the EC50 [3] is reported as under 100 nM. It also gave an IC50 (HSP90a protein) of 100 to 1000 nM and an IC50 (KRAS(G12C)) of over 1000 nM.
For `CCC(=O)N1CCN(c2nc(NCCC(=O)NCc3ccc(CN4CCC(Cc5ccc(-n6c(C(=O)NCC(F)(F)F)nnc6-c6cc(C(C)C)c(O)cc6O)cc5)CC4)cc3)nc3c2CCN(c2cc(O)cc4ccccc24)C3)CC1` [Compound 62, 5-(2,4-dihydroxy-5-isopropylphenyl)-4-(4-((1-(4-((3-((7-(3-hydroxynaphthalen-1-yl)-4-(4-propionylpiperazin-1-yl)-5,6,7,8-tetrahydropyrido[3,4-d]pyrimidin-2-yl)amino)propanamido)methyl)benzyl)piperidin-4-yl)methyl)phenyl)-N-(2,2,2-trifluoroethyl)-4H-1,2,4-triazole-3-carboxamide, trifluoroacetic acid], the EC50 [1] was 100 to 1000 nM, the EC50 [2] was 100 to 1000 nM and the IC50 (HSP90a protein) was 100 to 1000 nM. It also gave an IC50 (KRAS(G12C)) of over 1000 nM.
Work on `C=CC(=O)N1CCN(c2nc(NCCC(=O)NCc3ccc(CN4CCC(Cc5ccc(-n6c(C(=O)NCC(F)(F)F)nnc6-c6cc(C(C)C)c(O)cc6O)cc5)CC4)cc3)nc3c2CCN(c2cccc4ccccc24)C3)C[C@H]1CC#N` [Compound 95, (R)-4-(4-((1-(4-((3-((4-(4-acryloyl-3-(cyanomethyl)piperazin-1-yl)-7-(naphthalen-1-yl)-5,6,7,8-tetrahydropyrido[3,4-d]pyrimidin-2-yl)amino)propanamido)methyl)benzyl)piperidin-4-yl)methyl)phenyl)-5-(2,4-dihydroxy-5-isopropylphenyl)-N-(2,2,2-trifluoroethyl)-4H-1,2,4-triazole-3-carboxamide, trifluoroacetic acid] yielded an EC50 [1] of 100 to 1000 nM, an EC50 [2] of 100 to 1000 nM and an IC50 (HSP90a protein) of 100 to 1000 nM. The IC50 (KRAS(G12C)) was over 1000 nM.
For `CCC(=O)N1CCN(c2nc(NCCC(=O)N3CCC(CN4CCN(Cc5ccc(-n6c(C(=O)NC(C)C)nnc6-c6cc(CC)c(O)cc6O)cc5)CC4)CC3)nc3c2CCN(c2cc(O)cc4ccccc24)C3)CC1` [Compound 64, 5-(5-ethyl-2,4-dihydroxyphenyl)-4-(4-((4-((1-(3-((7-(3-hydroxynaphthalen-1-yl)-4-(4-propionylpiperazin-1-yl)-5,6,7,8-tetrahydropyrido[3,4-d]pyrimidin-2-yl)amino)propanoyl)piperidin-4-yl)methyl)piperazin-1-yl)methyl)phenyl)-N-isopropyl-4H-1,2,4-triazole-3-carboxamide, trifluoroacetic acid], the EC50 [1] was 100 to 1000 nM, the EC50 [2] was 100 to 1000 nM and the IC50 (HSP90a protein) was 100 to 1000 nM. It also gave an IC50 (KRAS(G12C)) of over 1000 nM.
`C=CC(=O)N1CCN(c2nc(NCCC(=O)N3CCC(CN4CCN(Cc5ccc(-n6c(C(=O)NCC(F)(F)F)nnc6-c6cc(C)c(O)cc6O)cc5)CC4)CC3)nc3c2CCN(c2cccc4cccc(Cl)c24)C3)C[C@H]1CC#N` [Compound 79, (R)-4-(4-((4-((1-(3-((4-(4-acryloyl-3-(cyanomethyl)piperazin-1-yl)-7-(8-chloronaphthalen-1-yl)-5,6,7,8-tetrahydropyrido[3,4-d]pyrimidin-2-yl)amino)propanoyl)piperidin-4-yl)methyl)piperazin-1-yl)methyl)phenyl)-5-(2,4-dihydroxy-5-methylphenyl)-N-(2,2,2-trifluoroethyl)-4H-1,2,4-triazole-3-carboxamide, trifluoroacetic acid] was tested, and the EC50 [1] was 100 to 1000 nM, the EC50 [2] was 100 to 1000 nM and the IC50 (HSP90a protein) was 100 to 1000 nM. The IC50 (KRAS(G12C)) was over 1000 nM.
For `CCc1cc(-c2nnc(C(=O)NC(C)C)n2-c2ccc(CN3CCN(CC4CCN(C(=O)CCNc5nc6c(c(N7CCN(C(C)=O)CC7)n5)CCN(c5cc(O)cc7ccccc57)C6)CC4)CC3)cc2)c(O)cc1O` [Compound 55, 4-(4-((4-((1-(3-((4-(4-acetylpiperazin-1-yl)-7-(3-hydroxynaphthalen-1-yl)-5,6,7,8-tetrahydropyrido[3,4-d]pyrimidin-2-yl)amino)propanoyl)piperidin-4-yl)methyl)piperazin-1-yl)methyl)phenyl)-5-(5-ethyl-2,4-dihydroxyphenyl)-N-isopropyl-4H-1,2,4-triazole-3-carboxamide, trifluoroacetic acid], the EC50 [1] was 100 to 1000 nM, the EC50 [2] was 100 to 1000 nM and the IC50 (HSP90a protein) was under 100 nM. It also gave an IC50 (KRAS(G12C)) of over 1000 nM.
`C=CC(=O)N1CCN(c2nc(NCCC(=O)N3CCC(CN4CCN(Cc5ccc(-n6c(C(=O)NCC(F)(F)F)nnc6-c6cc(CC)c(O)cc6O)cc5)CC4)CC3)nc3c2CCN(c2cccc4ccccc24)C3)C[C@H]1CC#N` [Compound 76, (R)-4-(4-((4-((1-(3-((4-(4-acryloyl-3-(cyanomethyl)piperazin-1-yl)-7-(naphthalen-1-yl)-5,6,7,8-tetrahydropyrido[3,4-d]pyrimidin-2-yl)amino)propanoyl)piperidin-4-yl)methyl)piperazin-1-yl)methyl)phenyl)-5-(5-ethyl-2,4-dihydroxyphenyl)-N-(2,2,2-trifluoroethyl)-4H-1,2,4-triazole-3-carboxamide, trifluoroacetic acid] was tested, and the EC50 [1] was 100 to 1000 nM, the EC50 [2] was 100 to 1000 nM and the IC50 (HSP90a protein) was 100 to 1000 nM. For the same molecule, the IC50 (KRAS(G12C)) was over 1000 nM.
`CCC(=O)N1CCN(c2nc(NCCC(=O)N3CCC(CN4CCN(Cc5ccc(-n6c(C(=O)NC7CC7)nnc6-c6cc(CC)c(O)cc6O)cc5)CC4)CC3)nc3c2CCN(c2cc(O)cc4ccccc24)C3)CC1` [Compound 116, N-cyclopropyl-5-(5-ethyl-2,4-dihydroxyphenyl)-4-(4-((4-((1-(3-((7-(3-hydroxynaphthalen-1-yl)-4-(4-propionylpiperazin-1-yl)-5,6,7,8-tetrahydropyrido[3,4-d]pyrimidin-2-yl)amino)propanoyl)piperidin-4-yl)methyl)piperazin-1-yl)methyl)phenyl)-4H-1,2,4-triazole-3-carboxamide, trifluoroacetic acid] gave an EC50 [1] of 100 to 1000 nM, an EC50 [2] of 100 to 1000 nM and an EC50 [3] of 100 to 1000 nM. It also gave an IC50 (HSP90a protein) of under 100 nM.
Work on `C=CC(=O)N1CCN(c2nc(NCCC(=O)NCC3CCC(C(=O)N4CCN(Cc5ccc(-n6c(O)nnc6-c6cc(CC)c(O)cc6O)cc5)CC4)CC3)nc3c2CCN(c2cc(O)cc4ccccc24)C3)CC1` (stereo not drawn) [Compound 23, 3-((4-(4-acryloylpiperazin-1-yl)-7-(3-hydroxynaphthalen-1-yl)-5,6,7,8-tetrahydropyrido[3,4-d]pyrimidin-2-yl)amino)-N-((4-(4-(4-(3-(5-ethyl-2,4-dihydroxyphenyl)-5-hydroxy-4H-1,2,4-triazol-4-yl)benzyl)piperazine-1-carbonyl)cyclohexyl)methyl)propanamide, trifluoroacetic acid] yielded an EC50 [1] of 100 to 1000 nM, an EC50 [2] of 100 to 1000 nM and an IC50 (HSP90a protein) of 100 to 1000 nM. It also gave an IC50 (KRAS(G12C)) of over 1000 nM.
`C=CC(=O)N1CCN(c2nc(NCCC(=O)N3CCC(CN4CCN(Cc5ccc(-n6c(C(=O)NCC(F)(F)F)nnc6-c6cc(CC)c(O)cc6O)cc5)CC4)CC3)nc3c2CCN(c2cc(O)cc4ccccc24)C3)CC1` [Compound 17, 4-(4-((4-((1-(3-((4-(4-acryloylpiperazin-1-yl)-7-(3-hydroxynaphthalen-1-yl)-5,6,7,8-tetrahydropyrido[3,4-d]pyrimidin-2-yl)amino)propanoyl)piperidin-4-yl)methyl)piperazin-1-yl)methyl)phenyl)-5-(5-ethyl-2,4-dihydroxyphenyl)-N-(2,2,2-trifluoroethyl)-4H-1,2,4-triazole-3-carboxamide, trifluoroacetic acid] showed an EC50 [1] of 100 to 1000 nM, an EC50 [2] of 100 to 1000 nM and an IC50 (HSP90a protein) of 100 to 1000 nM. It also gave an IC50 (KRAS(G12C)) of over 1000 nM.
Work on `CCNC(=O)c1nnc(-c2cc(CC)c(O)cc2O)n1-c1ccc(CN2CCN(CC3CCN(C(=O)CCNc4nc5c(c(N6CCN(C(=O)CC)CC6)n4)CCN(c4cc(O)cc6ccccc46)C5)CC3)CC2)cc1` [Compound 121, N-ethyl-5-(5-ethyl-2,4-dihydroxyphenyl)-4-(4-((4-((1-(3-((7-(3-hydroxynaphthalen-1-yl)-4-(4-propionylpiperazin-1-yl)-5,6,7,8-tetrahydropyrido[3,4-d]pyrimidin-2-yl)amino)propanoyl)piperidin-4-yl)methyl)piperazin-1-yl)methyl)phenyl)-4H-1,2,4-triazole-3-carboxamide, trifluoroacetic acid] yielded an EC50 [1] of under 100 nM, an EC50 [2] of 100 to 1000 nM and an EC50 [3] of 100 to 1000 nM. The IC50 (HSP90a protein) was under 100 nM.
